For orientation: IC50 means the concentration needed to halve the response being measured.

Each structure is given as a SMILES string.

The assay deals with KRAS G12C mutant human non-small cell lung cancer cells NCI-H358. In words: 3D cell proliferation inhibition assay, NCI-H358. The assay is classed as cell-based. The settings on record: Homo sapiens, NCI-H358, 168 h, 7 days, CTG. As for the experimental part: Inhibition of 3D cell proliferation by the compounds was investigated on KRAS G12C mutant human non-small cell lung cancer cells NCI-H358 (ATCC or Stem Cell Bank, Chinese Academy of Sciences), KRAS G12D mutant human metastatic pancreatic adenocarcinoma cells AsPC-1 (ATCC), KRAS G12V mutant human lung adenocarcinoma cells NCI-H441 (ATCC), and KRAS G13D mutant human colorectal adenocarcinoma epithelial cells DLD-1 (ATCC). The specific procedures were as follows:
200 nL of compound solution diluted in a gradient was added to corresponding microwells of a 384-well low-adsorption microwell plate (Corning, 3657) using an Echo sonic pipetting system (Labcyte, Echo 550), so that the final concentration of the test compound in the reaction system was in a range of 20000 nM-0.008 nM. Then 40 μL of cells at a certain density were added to the corresponding microplate. In addition to test wells for the test compounds, both a DMSO control well and a medium control well were set, with the DMSO control well containing DMSO and cells and the medium well containing only medium. After sample loading, the plate cover was applied, and the 384-well low-adsorption microplate was incubated in an incubator at 37° C. with 5% carbon dioxide for 7 days. After 7 days, the microplate was taken out, and 40 μL of CTG reagent (Promega, G9683) was added to each well. The plate was incubated at room temperature for 30 min and read on a microplate reader EnVision using the chemiluminescence program. The inhibition rates of the compounds at each concentration were calculated by the formula for the percentage inhibition of cell proliferation: inhibition rate %=(mean value of DMSO control group−single concentration reading value of compound)/(mean value of DMSO control group−mean value of medium control group)×100, and then nonlinear curve fitting was performed by GraphPad Prism 8 in the logarithmic concentration-inhibition rate to obtain the IC50 values of the compounds.
As to `COc1cc2nc(C)nc(N[C@H](C)c3cc(N)cc(C(F)(F)F)c3)c2cc1[C@H]1CC[C@H](C(=O)N2CCN(CCC3CCC4(CC3)CCN(C(=O)c3ccc(Cl)c(N5CCC(=O)NC5=O)c3)CC4)CC2)CC1` [Example 1, 1-(5-(9-(2-(4-((1R,4R)-4-(4-(((R)-1-(3-amino-5-(trifluoromethyl)phenyl)ethyl)amino)-7-methoxy-2-methylquinazolin-6-yl)cyclohexane-1-carbonyl)piperazin-1-yl)ethyl)-3-azaspiro[5.5]undecane-3-carbonyl)-2-chlorophenyl)dihydropyrimidine-2,4(1H,3H)-dione], the concentration for half-maximal inhibition (IC50) was at most 15 nM.

`COc1cc2nc(C)nc(N[C@H](C)c3cc(N)cc(C(F)(F)F)c3)c2cc1[C@H]1CC[C@H](C(=O)N2CCN(CC3CCC4(CC3)CCN(C(=O)c3ccc(Cl)c(N5CCC(=O)NC5=O)c3)CC4)CC2)CC1` [Example 2, 1-(5-(9-((4-((1R,4R)-4-(4-(((R)-1-(3-amino-5-(trifluoromethyl)phenyl)ethyl)amino)-7-methoxy-2-methylquinazolin-6-yl)cyclohexane-1-carbonyl)piperazin-1-yl)methyl)-3-azaspiro[5.5]undecane-3-carbonyl)-2-chlorophenyl)dihydropyrimidine-2,4(1H,3H)-dione] displayed an IC50 of at most 15 nM.

In turn, `COc1cc2nc(C)nc(N[C@H](C)c3cccc4c3CCS4(=O)=O)c2cc1[C@H]1CC[C@H](C(=O)N2CCN(CC3CCC4(CC3)CCN(C(=O)c3ccc(Cl)c(N5CCC(=O)NC5=O)c3)CC4)CC2)CC1` [Example 10, 1-(2-chloro-5-(9-((4-((1R,4R)-4-(4-(((R)-1-(1,1-dioxo-2,3-dihydrobenzo[b]thiophen-4-yl)ethyl)amino)-7-methoxy-2-methylquinazolin-6-yl)cyclohexane-1-carbonyl)piperazin-1-yl)methyl)-3-azaspiro[5.5]undecane-3-carbonyl)phenyl)dihydropyrimidine-2,4(1H,3H)-dione] came in with an IC50 of at most 15 nM.

Compound `COc1cc2nc(C)nc(N[C@H](C)c3cc(N)cc(C(F)(F)F)c3)c2cc1[C@H]1CC[C@H](C(=O)N2CCC(CCOCC3CCN(C(=O)c4ccc(Cl)c(N5CCC(=O)NC5=O)c4)CC3)CC2)CC1` [Example 19, 1-(5-(4-((2-(1-((1R,4R)-4-(4-(((R)-1-(3-amino-5-(trifluoromethyl)phenyl)ethyl)amino)-7-methoxy-2-methylquinazolin-6-yl)cyclohexane-1-carbonyl)piperidin-4-yl)ethoxy)methyl)piperidine-1-carbonyl)-2-chlorophenyl)dihydropyrimidine-2,4(1H,3H)-dione] showed an IC50 of at most 15 nM.

With `COc1cc2nc(C)nc(N[C@H](C)c3cc(N)cc(C(F)(F)F)c3)c2cc1[C@H]1CC[C@H](C(=O)N2CCN(CCOCC3CCN(C(=O)c4ccc(Cl)c(N5CCC(=O)NC5=O)c4)CC3)CC2)CC1` [Example 33, 1-(5-(4-((2-(4-((1R,4R)-4-(4-(((R)-1-(3-amino-5-(trifluoromethyl)phenyl)ethyl)amino)-7-methoxy-2-methylquinazolin-6-yl)cyclohexane-1-carbonyl)piperazin-1-yl)ethoxy)methyl)piperidine-1-carbonyl)-2-chlorophenyl)dihydropyrimidine-2,4(1H,3H)-dione], the IC50 is at most 15 nM.

Compound `CNCc1ccccc1-c1csc([C@@H](C)Nc2nc(C)nc3cc(OC)c([C@H]4CC[C@H](C(=O)N5CCN(CC6CCC7(CC6)CCN(C(=O)c6ccc(OC)c(N8CCC(=O)NC8=O)c6)CC7)CC5)CC4)cc23)c1` [Example 73, 1-(2-methoxy-5-(9-((4-((1R,4R)-4-(7-methoxy-2-methyl-4-(((R)-1-(4-(2-((methylamino)methyl)phenyl)thien-2-yl)ethyl)amino)quinazolin-6-yl)cyclohexane-1-carbonyl)piperazin-1-yl)methyl)-3-azaspiro[5.5]undecane-3-carbonyl)phenyl)dihydropyrimidine-2,4(1H,3H)-dione] displayed an IC50 of at most 15 nM.

Source of the values: US20240261417A1, “SOS1 DEGRADING AGENT AND PREPARATION METHOD THEREFOR AND APPLICATION THEREOF” (SHANGHAI LEADINGTAC PHARMACEUTICAL CO. LTD., priority 2021, published 2024).
